Earlier results as cited in US10821075B1, “Compositions for topical application of a medicaments onto a mammalian body surface” (priority 2017, dated 2020).

Details: weak acid drug

## CC(C(=O)O)c1cccc(C(=O)c2ccccc2)c1 (stereo not shown) [ketoprofen]
  pKa: 4.30
